Source: US11576892B2, “Benzopyran derivatives and uses thereof” (Novation Pharmaceuticals Inc., priority 2015, dated 2023)
Values belong to the compound of their own block, whether it stands above or below them.

Tests used:
[1] = system: IL-1β release from THP 1 cells; experiment: IL-1β release from THP 1 cells measured by ELISA; type: cell-based, human; details: IFNγ/LPS-stimulated THP 1 cells
Procedure: (§1) The THP 1 cell line is generally available and is described by Tsuchia et. al. Tsuchiya, Yamabe et al. (1980). Establishment and characterization of a human acute monocytic leukemia cell line (THP-1). Int J Cancer. 26: 171-176.
(§2) 900 μl THP 1 cells (0.5×10^6 cells) together with 100 Uγ interferon/0.9 ml RPMI 1640 medium (containing 2 mM L glutamine and 5% heat inactivated fetal calf serum) are pipetted into 24-well culture plates. 100 μl of the compound to be tested are then added. After 3 hours at 37° C. in 5% CO2/95% air, 10 μl lipopolysaccharide (LPS) 500 μg/ml is added and the incubation continued for a further 24 hours. Appropriate controls (with and without stimulus, solvent) are also included. The media are then removed and clarified by centrifugation at 1000 g for 10 min. Samples are stored at […] until the determinations can be made. IL 1β, IL 6 IL-12, and IL-23 assays are determined using commercially available ELISA kits. In these tests, the compounds of the disclosure may inhibit IL-1β, IL-6, IL-12 and IL-23 release at a concentration of about 10 to 50 μM. The compounds are non-toxic based on resazurin measurements as described in Didiot, Hewett et al. (2013). Identification of cardiac glycoside molecules as inhibitors of c-Myc IRES-mediated translation. J Biomol Screen. 18: 407-419.

IFNγ release from PBMCs = IFNγ release from PBMCs measured by ELISA; type: cell-based; details: 5 μM, human PBMCs
Procedure: (§3) Mononuclear cells are obtained from the blood of healthy volunteers via centrifugation and cultivated on tissue culture dishes with the test compound at various concentrations Schnyder, Bollinger et al. (1990). Inhibition of interleukin-1 release by IX 207-887. Agents Actions. 30: 350-362. Fresh human mononuclear cells were isolated on Ficoll-Paque gradient and washed several times. Fresh medium, test compound and LPS (10 μg/ml) or PHA (5 μg/ml) as stimulant are added and the monocytes incubated for a further day. The media are then removed and clarified by centrifugation at 1000×g for 10 min. Samples are stored at […] until the determinations can be made. IFNγ, IL 1β, IL 6, and IL-17 are determined using commercially available ELISA kits.

IL-12 p40 mRNA = experiment: mRNA stability reporter gene (luciferase) assay, IL-12 p40; type: cell-based; details: 10 μM, 24 h, n.a. = no activity
Procedure: (§4) The basic principle of a reporter gene assay for determining compounds that destabilize mRNA is described in detail in WO 00/39314. A number of these assays for various drug targets have been developed and were tested with the compounds described in this disclosure. For THP-1 cells, compound is added at the time of the addition of LPS and luciferase measurements are taken 24 hours later or as indicated. For other cell lines, cells were plated in 96 well plates at 5*10^5 cells per 100 ul per well and incubated over night at 37° C. Compounds were then added and luciferase activity was measured after 24 hours. The activity was compared to other mRNA stability assays established for a range of other drug targets and found to be specific for IL-6, IL-12p40 and IL-23p19. Luciferase activity in the IL-6, IL-12 and IL-23 assays was inhibited by 10 μM benzopyran derivatives by >40% (Table IV).

IL-4 = experiment: LPS-induced cytokine release in mice, serum IL-4; type: in vivo; details: 100 mg/kg pre-treatment; serum 4 h post LPS; CD-1 mouse
Procedure: (§5) Compounds were evaluated on intra-peritoneal LPS-induced cytokine release measured in serum in the CD-1 mouse. Vehicle, Test item and positive control were administered 1 h before LPS injection as well 30 min post LPS injection (except as otherwise varied herein). In serum samples collected at 4 h post LPS injection, following cytokines were measured by multiplex on MSD 10 V-plex platform: TNF-alpha, IFN-gamma, IL-1beta, IL-2, IL-4, IL-5, IL-6, IL-10, IL-12, KC/GRO. All cytokines except IL-5 were induced by LPS injection (compared with saline injection).
(§6) Serum samples collected at 4h post LPS challenge were analyzed in duplicate wells using multiplex on MSD 10 V-plex platform. […] FIG. 1: Effect of test compounds 333 (TI1) and 1781 (TI2) on IFN-gamma levels in serum of LPS treated mice. FIG. 2: Effect of test compounds 333 (TI1) and 1781 (TI2) on IFN-gamma levels in serum of LPS treated mice (values of individual animals)

IL-1β release from PBMCs = IL-1β release from PBMCs measured by ELISA; type: cell-based; details: LPS or PHA stimulated human PBMCs
Procedure: as §3

[2] = system: IL-23 release from THP 1 cells; experiment: IL-23 release from THP 1 cells measured by ELISA; type: cell-based, human; details: IFNγ/LPS-stimulated THP 1 cells
Procedure: as §1, §2

IL-12 = experiment: LPS-induced cytokine release in mice, serum IL-12; type: in vivo; details: 100 mg/kg pre-treatment; serum 4 h post LPS; CD-1 mouse
Procedure: as §5, §6

IL-6 mRNA [3] = experiment: IL-6 mRNA levels in IFN-γ/LPS-stimulated THP-1 cells (RT-PCR); type: cell-based, human; details: γIFN/LPS, 24h, compounds 10 μM, RT-PCR vs β-actin
Procedure: Total RNA was isolated at t=24 h from IFN-γ/LPS-stimulated THP-1 cells exposed to compounds (10 μM) or DMSO (solvent control) for 24 […], using the RNeasy Midi Kit (Qiagen), according to the manufacturer's instructions, and eluted in DEPC-treated Milli-Q H2O. Quantity and purity of RNA were determined by absorbance at 260 and 280 nm.
For RT-PCR analysis, 1 μg of total RNA was reverse transcribed using AMV reverse transcriptase (Life Sciences Inc., St. Petersburg, Fla.), then amplified by the PCR method. Each PCR reaction also contained a set of β-actin primers as internal control. The levels of the expected PCR product were compared to the constant levels of β-actin. The size of the PCR products was compared to MspI digested pBR322 standards (New England Biolabs). PCR products were analyzed on a 4% agarose gel.
Nucleotide sequences for the oligonucleotide 5′ and 3′ primers, respectively, were: […]

[4] = system: IL-6 release from THP 1 cells; experiment: IL-6 release from THP 1 cells measured by ELISA; type: cell-based, human; details: IFNγ/LPS-stimulated THP 1 cells, 24 h
Procedure: as §1, §2

TNF-alpha = experiment: LPS-induced cytokine release in mice, serum TNF-alpha; type: in vivo; details: 100 mg/kg pre-treatment; serum 4 h post LPS; CD-1 mouse
Procedure: as §5, §6

IFN-gamma = experiment: LPS-induced cytokine release in mice, serum IFN-gamma; type: in vivo; details: 100 mg/kg pre-treatment; serum 4 h post LPS; CD-1 mouse
Procedure: as §5, §6

IL-6 mRNA [5] = experiment: mRNA stability reporter gene (luciferase) assay, IL-6; type: cell-based; details: 24 h
Procedure: as §4

IL-23 p19 mRNA = experiment: mRNA stability reporter gene (luciferase) assay, IL-23 p19; type: cell-based; details: 10 μM, 24 h, n.a. = no activity
Procedure: as §4

IL-6 release from PBMCs = IL-6 release from PBMCs measured by ELISA; type: cell-based; details: LPS or PHA stimulated human PBMCs
Procedure: as §3

Htt mRNA = experiment: mRNA stability reporter gene (luciferase) assay, Htt; type: cell-based; details: 10 μM, 24 h, n.a. = no activity
Procedure: as §4

DNMT1 mRNA = experiment: mRNA stability reporter gene (luciferase) assay, DNMT1; type: cell-based; details: 10 μM, 24 h, n.a. = no activity
Procedure: as §4

SNCA mRNA = experiment: mRNA stability reporter gene (luciferase) assay, SNCA; type: cell-based; details: 10 μM, 24 h, n.a. = no activity
Procedure: as §4

APP mRNA = experiment: mRNA stability reporter gene (luciferase) assay, APP; type: cell-based; details: 10 μM, 24 h, n.a. = no activity
Procedure: as §4

IL-12 p40 mRNA stability assay (% inhibition) (IL-12 p40 mRNA): 62 % inhibition
IL-6 mRNA stability assay (% inhibition) (IL-6 mRNA [5]; 10 μM, luciferase, n.a. = no activity): 84 % inhibition
IL-23 p19 mRNA stability assay (% inhibition) (IL-23 p19 mRNA): 41 % inhibition
SMILES: COc1ccc(Oc2coc3cc(O)ccc3c2=O)cc1 [Compound 1781]
IL-1β release from THP 1 cells, % control at 10 μM [1]: 100 % control
IFNγ release from PBMCs, % control (24 h) (IFNγ release from PBMCs): 75 % control
Effect on serum IL-4 (IL-4): trend of effect
IL-1β release from PBMCs (% control) (IL-1β release from PBMCs; 2.5 μM): 136 % control
IL-1β release from PBMCs (% control) (IL-1β release from PBMCs; 5 μM): 137 % control
IL-1β release from PBMCs (% control) (IL-1β release from PBMCs; 10 μM): 104 % control
IL-1β release from PBMCs (% control) (IL-1β release from PBMCs; 20 μM): 104 % control
IL-23 release from THP 1 cells, % control at 10 μM [2]: 100 % control
Effect on serum IL-12 (IL-12): trend of effect
IL-6 mRNA analysis, % ctrl (IL-6 mRNA [3]): 92 % ctrl
IL-6 release from THP 1 cells, % control ([4]; 10 μM): 74 % control
IL-6 release from THP 1 cells, % control ([4]; 40 μM): 64 % control
IL-6 release from THP 1 cells, % control ([4]; 100 μM): 55 % control
Effect on serum TNF-alpha (TNF-alpha): trend of effect
Effect on LPS-induced increase in serum IFN-gamma level (IFN-gamma): significantly blocked
IL-6 release from PBMCs (% control) (IL-6 release from PBMCs; 2.5 μM): 115 % control
IL-6 release from PBMCs (% control) (IL-6 release from PBMCs; 5 μM): 127 % control
IL-6 release from PBMCs (% control) (IL-6 release from PBMCs; 10 μM): 83 % control
IL-6 release from PBMCs (% control) (IL-6 release from PBMCs; 20 μM): 57 % control

SMILES: CC(=O)Oc1ccc2c(=O)c(Oc3ccccc3)coc2c1 [Compound 1782]
IL-1β release from THP 1 cells, % control at 10 μM [1]: 100 % control
IL-1β release from PBMCs (% control) (IL-1β release from PBMCs; 2.5 μM): 123 % control
IL-1β release from PBMCs (% control) (IL-1β release from PBMCs; 5 μM): 115 % control
IL-1β release from PBMCs (% control) (IL-1β release from PBMCs; 10 μM): 109 % control
IL-1β release from PBMCs (% control) (IL-1β release from PBMCs; 20 μM): 89 % control
IL-23 release from THP 1 cells, % control at 10 μM [2]: 93 % control
IL-6 mRNA analysis, % ctrl (IL-6 mRNA [3]): 93 % ctrl
IL-6 release from THP 1 cells, % control ([4]; 10 μM): 56 % control
IL-6 release from THP 1 cells, % control ([4]; 40 μM): 57 % control
IL-6 release from THP 1 cells, % control ([4]; 100 μM): 28 % control
IL-6 release from PBMCs (% control) (IL-6 release from PBMCs; 2.5 μM): 106 % control
IL-6 release from PBMCs (% control) (IL-6 release from PBMCs; 5 μM): 139 % control
IL-6 release from PBMCs (% control) (IL-6 release from PBMCs; 10 μM): 89 % control
IL-6 release from PBMCs (% control) (IL-6 release from PBMCs; 20 μM): 61 % control

Htt mRNA stability assay (% inhibition) (Htt mRNA): 35 % inhibition
DNMT1 mRNA stability assay (% inhibition) (DNMT1 mRNA): 19 % inhibition
IL-12 p40 mRNA stability assay (% inhibition) (IL-12 p40 mRNA): 64 % inhibition
SNCA mRNA stability assay (% inhibition) (SNCA mRNA): 25 % inhibition
IC50 (IL-6 mRNA [5]; luciferase reporter, unit printed truncated): 128 nM
APP mRNA stability assay (% inhibition) (APP mRNA): 5 % inhibition
IL-23 p19 mRNA stability assay (% inhibition) (IL-23 p19 mRNA): 94 % inhibition
SMILES: COc1cc(O)c2c(c1OC)/C=C/C[C@H](O)[C@H](O)C(=O)/C=C\C[C@H](C)OC2=O [RAA, radicicol analog A, reference compound]
IL-1β release from PBMCs (% control) (IL-1β release from PBMCs; 2.5 μM): 4 % control
IL-1β release from PBMCs (% control) (IL-1β release from PBMCs; 5 μM): 4 % control
IL-1β release from PBMCs (% control) (IL-1β release from PBMCs; 10 μM): 4 % control
IL-1β release from PBMCs (% control) (IL-1β release from PBMCs; 20 μM): 4 % control
IL-6 release from THP 1 cells, % control ([4]; 10 μM): 3 % control
IL-6 release from THP 1 cells, % control ([4]; 40 μM): 2 % control
IL-6 release from THP 1 cells, % control ([4]; 100 μM): 3 % control
IL-6 release from PBMCs (% control) (IL-6 release from PBMCs; 2.5 μM): 10 % control
IL-6 release from PBMCs (% control) (IL-6 release from PBMCs; 5 μM): 9 % control
IL-6 release from PBMCs (% control) (IL-6 release from PBMCs; 10 μM): 11 % control
IL-6 release from PBMCs (% control) (IL-6 release from PBMCs; 20 μM): 11 % control
